The subject of experiment [1] is NS3-4A protease T54A mutant. The conditions noted are these: cited from earlier work.
Experiment [2] deals with NS3-4A protease A156S mutant. The conditions noted are these: cited from earlier work.
The subject of experiment [3] is wild-type NS3-4A protease, HCV genotype 1a (HCV-H). The conditions noted are these: HCV genotype 1a reference strain HCV-H; cited from earlier work.
The subject of experiment [4] is NS3-4A protease T54S mutant. The conditions noted are these: cited from earlier work.
Experiment [5] deals with NS3-4A protease A156I/T/V mutants. The conditions noted are these: range over A156I/T/V mutants; cited from earlier work.
The subject of experiment [6] is HCV genotype 1. Conditions: phase 1b clinical trial, after treatment duration of 24 hours; cited from earlier work.
The subject of experiment [7] is HCV subgenomic replicon (genotype 1b) harboring the V36G mutant in Huh-7.5 cells. As to the kind of experiment: Two-day HCV replicon assay, V36G mutant. The class given is cell-based, hepatitis C virus genotype 1b. Conditions: for IC50: Hepatitis C virus, Huh7.5, 48 h, read-out: IC50 (HCV RNA level in replicon cells reduced by 50%); for viral suppression in V36G mutant replicon assay in comparison to wild-type replicon assay: V36G versus wild-type replicon, genotype 1b, 48 h. As to the method:
Only the SCH 503034 inhibitor is lacking the cyclopropyl group (Figure 1). We used a wild-type HCV replicon assay (genotype 1b) and an assay harboring the V36G mutant for in vitro testing. Detailed information on experimental procedures is given in Materials and methods.
SCH 503034 was synthesized by Schering-Plough Corporation (Kenilworth, NJ, USA), dissolved in dimethyl sulfoxide as a 19 mM solution. Both compounds were stored at 4°C.
The plasmid pFKI389neo/NS3-3'/ET contains HCV subgenomic replicon sequences derived from HCV genotype 1b and an upstream T7 promoter for in vitro RNA synthesis. The point mutation was generated with the QuikChange II XL Site-Directed Mutagenesis Kit (Stratagene, La Jolla, CA, USA). The plasmid was linearized with ScaI and purified by phenol chloroform extraction. The linearized and purified plasmid was transcribed by using a T7 RNA polymerase (Promega, Madison, WI, USA) according to the manufacturer's instructions. All of the plasmids and RNAs were checked for purity and integrity by standard procedures.
Huh-7.5 cells were cultured in Dulbecco's modified Eagle's medium (DMEM; Invitrogen, Carlsbad, CA, USA) containing 10% fetal bovine serum (FBS; PAA Laboratories GmbH, Pasching, Germany) and 2 mM L-glutamine. The cells were transfected with an in vitro-transcribed subgenomic HCV replicon RNA. The wild-type sequence was identical to that of the pFKI389neo/NS3-3'/ET replicon. Stable cells containing the self-replicating HCV replicon were selected and maintained in the presence of 750 μg of G418 (Invitrogen) per ml and were used for HCV replicon assays.
HCV replicon cells were plated in a 6-well plate at a density of 2 × 10^5 cells per well in DMEM with 10% FBS. On the following day (24 h later), the culture medium was replaced with DMEM containing either no compound as a control or compounds serially diluted in the presence of 10% FBS and 750 μg/ml G418. After the cells were incubated with the compounds for 48 h, the intracellular RNA was extracted with an RNeasy kit (Qiagen, Valencia, CA, USA). The level of HCV RNA was determined by a real-time quantitative reverse transcription-PCR (RT-PCR) assay (Taqman) with a pair of HCV-specific primers (5'-[…]-3' and 5'-[…]-3'), an HCV-specific probe (5'-6FAM-[…] XT-PH-3), and an ABI Prism 7000 sequence detection system (Applied Biosystems, Foster City, CA, USA).
Background: Replicon systems follow genome replication, usually without infectious particles.

For experiment [8], the system named is NS3-4A protease V36A/G/L/M mutants. Conditions: cited from earlier work.
Experiment [9] relates to NS3-4A protease R155G/I/K/L/M/S/T mutants. Conditions: cited from earlier work.

Read-outs that look alike come from different tables or passages of the source.

`CCC[C@H](NC(=O)[C@@H]1[C@H]2CCC[C@H]2CN1C(=O)[C@@H](NC(=O)[C@@H](NC(=O)c1cnccn1)C1CCCCC1)C(C)(C)C)C(=O)C(=O)NC1CC1` [VX-950, telaprevir]: the IC50 – broadly, the concentration that inhibits the measured activity by half – is 0.749 µM in experiment [1]; 1.4 µM in experiment [2]; 0.07 µM in experiment [3]; 0.12 µM in experiment [4]; 12.5 to 50 µM in experiment [5]; approximately 5 µM in experiment [7]. Further, the 50% inhibitory concentration (IC50) is 0.226 µM in experiment [8] (V36A/G/L/M mutants, read-out: IC50 mean); 0.11 to 0.444 µM in experiment [8] (range over V36A/G/L/M mutants, read-out: IC50 range); 0.538 µM in experiment [9] (R155G/I/K/L/M/S/T mutants, read-out: IC50 mean); 0.275 to 1.05 µM in [9] (range over R155G/I/K/L/M/S/T mutants, read-out: IC50 range). In experiment [6], the “HCV RNA decline” value is reported as “above 3 log”. The “viral suppression in V36G mutant replicon assay in comparison to wild-type replicon assay” value in experiment [7] was “considerably delayed”.
For `CC(C)(C)NC(=O)N[C@H](C(=O)N1C[C@H]2[C@@H]([C@H]1C(=O)NC(CC1CCC1)C(=O)C(N)=O)C2(C)C)C(C)(C)C` (some centres unmarked) [SCH 503034, boceprevir], in experiment [7], the IC50 is less than 5 µM and the “viral suppression in V36G mutant replicon assay in comparison to wild-type replicon assay” value was “nearly equally effective”.

The values are drawn from paper PMC2395260 (Genome Biology, 2008).
